From patent publication US10016515B2, “DMA, a bis-benzimidazole, confers radioprotection to the intestine via Akt/NFκB dual pathway activation” (Jawaharlal Nehru University, priority 2016, dated 2018)
Values joined by “and” are separate entries in the source; they are usually repeats but may differ in a detail not shown here. Equal entries are not always repeated.

Experiments:
[1] = system: nude mice; test: Nude mice survival after 7Gy TBI; assay type: in vivo, mouse; conditions: 50 mg/kg i.p. 2 h prior to 7Gy TBI
Description: Mice were divided into 4 groups containing 5 animals each. Group 1, sham control; Group 2, DMA treated (50 mg/kg, i.p.); Group 3, TBI 7Gy; Group 4, treated with DMA (50 mg/kg i.p.) prior to TBI 7Gy.

[2] = Plasma pharmacokinetics of DMA; assay type: in vivo, mouse
Description: Oral and intravenous pharmacokinetics of DMA was performed at a dose of 100 and 50 mg/kg bw, respectively. Control mice were administered equal volume of sterile water. Blood samples were collected by cardiac puncture at 1, 2, 4, 6, 16, and 24 h after oral and intravenous administration of DMA. Plasma was spiked with Hoechst 33342 as internal standard. Plasma proteins were precipitated by adding 180 μl acetonitrile and the samples were centrifuged at 14000 rpm for 10 min at 4° C. Clear supernatant […] was taken and […] distilled water was added to get a ˜35% acetonitrile solution. The samples were injected onto HPLC-MS/MS system.
A standard DMA calibration from 1-1000 ng/ml with internal standard (20 ng/ml) was quantified. Sample analysis was performed on positive ionization mode LC-MS/MS with multiple reactions monitoring (MRM, m/z Q1/Q3) of DMA (m/z 235.1/412.0, retention time (RT) 5.3 min) and internal standard (m/z 227.1/396.0, RT 6.5 min) (Agilent 6410 series). A gradient method was employed to analyze the plasma samples using mobile phase A (0.1% formic acid in water) and mobile phase B (methanol). The B % was set as 30 (0 min), 90 (10-14 min), 30 (14-24 min) with flow rate of 0.3 ml/min. An injection volume of 10 μl was used for analysis.
Peak tissue concentration (Cmax) of DMA and time to reach the Cmax (tmax) were read directly from the raw data by visual examination of mean tissue concentration-time profile. The tissue concentration-time data following oral dose were subjected to one-, two- and three-compartmental models using WinNonlin program (version 6.3; Certara Inc, Missouri, USA) to calculate the pharmacokinetic parameters. The pharmacokinetic models were compared according to maximal correlation between observed and predicted concentration, minimal sum of squared residuals, Akaike Information Criterion (AIC) and Schwarz Bayesian Criterion (SBC). However, the tissue concentration-time data following intravenous administration were subjected to non-compartmental approach.

[3] = system: HEK293 cells; test: Clonogenic survival, DMF; assay type: cell-based, human; conditions: HEK293, 50 μM DMA 2 h before radiation
Description: (§1) Exponentially growing U87, HEK293, MRC5 and A549 cells were treated with 50 μM DMA for 2 h and irradiated with 0, 1, 2, 5, 8 and 10 Gy of radiation dose as indicated at RT and trypsinized immediately at 37° C. Cells were seeded into 60 mm dishes in triplicate at various cell densities aiming approximately 100 colonies/dish. Percentage radioprotection was calculated by following formula % of Protection in radiation treated cells=(SFDMA+radiaion)−(SFRadiaion)/SFControl×100 Where SF is survival fraction in respective conditions. Dose modification factor (DMF) was calculated as ratio of 50% survival in DMA+radiation to 50% survival in radiation only.

[4] = system: A549 cells; test: Clonogenic survival, DMF; assay type: cell-based, human; conditions: A549, 50 μM DMA 2 h before radiation
Description: as §1

[5] = system: MRC5 cells; test: Clonogenic survival, DMF; assay type: cell-based, human; conditions: MRC5, 50 μM DMA 2 h before radiation
Description: as §1

[6] = system: U87 cells; test: Clonogenic survival, DMF; assay type: cell-based, human; conditions: U87, 50 μM DMA 2 h before radiation
Description: as §1

[7] = in vivo (earlier work, Nimesh et al., 2015); cited from earlier work
[8] = system: Akt/NFκB pathway in Balb/c mice intestine tissue; test: Immunoblot analysis and Akt kinase assay in intestine tissue; assay type: in vivo, mouse
Description: HEK293, MRC5 and A549 cells were treated as indicated earlier. The cell pellet was resuspended in RIPA buffer and allowed to swell on ice for 30 min. Balb/c intestine tissue and tumor tissues were homogenized in RIPA buffer. Protein concentration was determined using Bradford's Assay (Bangalore Genei). Western blot was performed using standard protocols with primary antibodies against Akt, pAkt (Ser-473), […], mTOR, p70, Bad, PTEN, IKKα/β, p IKKα/β, p53, Bcl2, GAPDH, and NFκB (p65) (Cell Signalling) and horseradish peroxidase-conjugated mouse or rabbit secondary antibody (Abcam). Signals were detected using enhanced chemiluminescence (ECL system, Pierce) on X-ray film.
Akt kinase activity was determined using Akt Kinase Assay Kit (Nonradioactive) (Cell Signaling Technology, Cat. #9840) following the manufacturer's instructions.

[9] = system: Balb/c mice spleen; test: Endogenous spleen colony forming assay; assay type: in vivo, mouse
Description: Group 1, sham control (normal saline treated); Group 2, DMA treated (200 mg/kg bw); Group 3, radiation control (whole body exposure to 8Gy); Group 4, treated with DMA (200 mg/kg bw) prior to whole body exposure to 8Gy. Mice (6 animals each) were irradiated, 2 h post-administration of DMA. The mice were sacrificed on day 10 and spleens were removed, blotted free of blood, weighed and the spleen index was calculated [spleen index=(spleen weight/body weight)×100]. Subsequently spleens were fixed in Bouin's fixative for 15 min and the number of macroscopic spleen cell colonies was counted manually.

[10] = system: Balb/c mice intestine tissue; test: Gene expression at mRNA level by RT-PCR; assay type: in vivo, mouse
Description: The cDNA generated from total RNA was amplified using 1 μl of the reaction products in 10 μl with respective primers for 45 cycles following standard RT-PCR cycle by SYBR green dye. Transcript levels were calculated according to the 2^−ΔΔCt method, normalized to the expression of GAPDH, and expressed as fold change compared with control.

[11] = Balb/c, mouse, plasma, 100 mg/kg oral
[12] = DMA pre-treated to radiation group

COc1ccc(-c2nc3cc(-c4nc5cc(N6CCN(C)CC6)ccc5[nH]4)ccc3[nH]2)cc1OC [DMA, 5-(4-methylpiperazin-1-yl)-2-[2′-(3,4-dimethoxyphenyl)-5′-benzimidazolyl]benzimidazole]
30-days survival of nude mice [1]: 40% | Maximum concentration observed in plasma ([2]; 50 mg/kg i.v.): 4291.95 ng/mL | Volume of distribution (Vss) ([2]; 50 mg/kg i.v.): larger than the total blood volume of mouse | Plasma peak concentration ([2]; 100 mg/kg oral): 445.8 ng/mL | Time to decline to basal level in plasma ([2]; 100 mg/kg oral): 16 h | half-life ([2]; Balb/c, mouse, plasma, iv, 50 mg/kg i.v.): 159 min | Tmax [2, 11]: 1.5 h | half-life [2, 11]: 210 min | AUC ([2]; Balb/c, mouse, plasma, 100 mg/kg oral, read-out: Area under curve (AUC), plasma): 669 ng·h/mL | clearance ([2]; Balb/c, plasma, intravenous, 50 mg/kg, mouse, hepatic blood flow 5.4 L/h/kg, read-out: Systemic clearance (converted)): 195 mL/min/kg | Clearance from plasma ([2]; oral and i.v. routes): rapid clearance | DMF at 50% survival [3]: 1.44 | DMF at 50% survival [4]: 1.38 | DMF at 50% survival [5]: 1.1 | DMF at 50% survival [6]: 1.067 and 1.07 | Maximum tolerated dose (MTD), no toxicity in vivo [7]: 2000 mg/kg | Phosphorylated Akt, GSK3β and IKKα/β ([8]; DMA treated intestine tissue prior to irradiation): higher level | Kinase activity of Akt ([8]; DMA+Radiation vs control and radiation, intestine): higher kinase activity | NFκB p65 expression ([8]; DMA+Radiation, intestine): higher expression | Spleen index ([9]; 200 mg/kg oral before 8Gy, day 10): 0.33±0.02 | Spleen index ([9]; DMA treatment only, 200 mg/kg): 0.41±0.05 | Endogenous colony forming units ([9]; DMA+Radiation, 10th day post-irradiation): 11.25±1.7 | Akt mRNA expression ([10]; DMA 50 mg/kg i.v. + 8Gy TBI vs control): higher expression | Bax, Bcl-2 and p21 mRNA expression level ([10]; DMA by itself): did not increase | Gadd45α mRNA expression ([10]; DMA by itself): significantly increased | Bax gene expression [10, 12]: no significant downregulation | Bcl-2 mRNA level [10, 12]: insignificant increase | p21 mRNA expression ([10]; DMA pretreatment 50 mg/kg i.v. to radiation vs radiation): significantly downregulated | Gadd45α mRNA expression ([10]; DMA pretreatment to radiation): augmented
